Data: paper PMC9302689 (British Journal of Clinical Pharmacology, 2022)

Tests used:
[1] = molecular target: hERG channel (Homo sapiens, UniProt Q12809); assay: In vitro hERG channel testing; assay type: biochemical
[2] = tested on: healthy male subjects; assay: Treatment emergent adverse events; assay type: in vivo, human; conditions: for Incidence of TEAE: Dizziness / Incidence of TEAE: Dizziness postural / Incidence of TEAE: Fatigue / Incidence of TEAE: Headache / Incidence of TEAE: Nausea / Incidence of TEAE: Oropharyngeal pain / Incidence of TEAE: Presyncope / Incidence of TEAE: Pruritus / Incidence of TEAE: Somnolence / Incidence of TEAE: Vomiting: n = 8
[3] = molecular target: NMDA receptor; assay: In vitro binding affinity, NMDA receptor; conditions: read-out: Ki, NMDA receptor; preclinical in vitro panel

Chain of hERG channel (Q12809 whole entry): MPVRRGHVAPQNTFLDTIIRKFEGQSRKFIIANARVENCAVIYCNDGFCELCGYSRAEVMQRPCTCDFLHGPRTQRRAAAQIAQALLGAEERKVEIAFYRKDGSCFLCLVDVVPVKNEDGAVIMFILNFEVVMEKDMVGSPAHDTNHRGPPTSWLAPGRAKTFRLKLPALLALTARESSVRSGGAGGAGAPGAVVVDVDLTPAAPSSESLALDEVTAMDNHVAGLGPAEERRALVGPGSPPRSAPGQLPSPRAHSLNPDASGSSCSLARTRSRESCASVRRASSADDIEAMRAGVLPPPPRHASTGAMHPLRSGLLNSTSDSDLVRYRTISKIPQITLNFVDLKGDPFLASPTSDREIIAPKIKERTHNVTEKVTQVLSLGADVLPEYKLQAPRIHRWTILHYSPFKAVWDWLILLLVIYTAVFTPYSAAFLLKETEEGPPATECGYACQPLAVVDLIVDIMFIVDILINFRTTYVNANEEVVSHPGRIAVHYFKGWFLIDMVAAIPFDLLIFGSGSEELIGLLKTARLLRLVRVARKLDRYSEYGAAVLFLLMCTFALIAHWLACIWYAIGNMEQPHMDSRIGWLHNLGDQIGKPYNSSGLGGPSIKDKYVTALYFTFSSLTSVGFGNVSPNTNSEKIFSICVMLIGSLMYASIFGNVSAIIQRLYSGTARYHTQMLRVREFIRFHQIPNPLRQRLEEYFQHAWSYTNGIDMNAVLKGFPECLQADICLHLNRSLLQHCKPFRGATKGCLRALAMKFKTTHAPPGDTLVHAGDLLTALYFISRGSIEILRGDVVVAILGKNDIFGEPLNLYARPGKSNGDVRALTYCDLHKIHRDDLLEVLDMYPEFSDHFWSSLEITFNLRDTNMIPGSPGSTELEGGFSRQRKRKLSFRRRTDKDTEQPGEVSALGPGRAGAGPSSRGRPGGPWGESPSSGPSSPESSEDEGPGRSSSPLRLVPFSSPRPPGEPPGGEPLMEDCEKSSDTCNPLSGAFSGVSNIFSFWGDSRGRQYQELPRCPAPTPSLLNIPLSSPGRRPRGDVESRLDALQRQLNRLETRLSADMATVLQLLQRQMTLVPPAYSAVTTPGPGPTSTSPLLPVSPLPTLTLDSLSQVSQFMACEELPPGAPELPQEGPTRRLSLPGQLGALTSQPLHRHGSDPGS

Compound: CN1CCC23CCCCC2C1Cc1ccc(C(N)=O)cc13 (stereo not drawn) [ALKS 7119, (9α, 13α)‐17‐methylmorphinan‐3‐carboxamide]
- hERG IC50 [1]: 54.3488 µg/mL
- IC50 ([1]; read-out: hERG IC50): 191 µM
- Incidence of TEAE: Dizziness ([2]; 3 mg single oral dose): 0
- Incidence of TEAE: Dizziness postural ([2]; 3 mg single oral dose): 0
- Incidence of TEAE: Fatigue ([2]; 3 mg single oral dose): 3
- Incidence of TEAE: Headache ([2]; 3 mg single oral dose): 0
- Incidence of TEAE: Nausea ([2]; 3 mg single oral dose): 0
- Incidence of TEAE: Oropharyngeal pain ([2]; 3 mg single oral dose): 0
- Incidence of TEAE: Presyncope ([2]; 3 mg single oral dose): 0
- Incidence of TEAE: Pruritus ([2]; 3 mg single oral dose): 0
- Incidence of TEAE: Somnolence ([2]; 3 mg single oral dose): 0
- Incidence of TEAE: Vomiting ([2]; 3 mg single oral dose): 0
- Incidence of TEAE: Dizziness ([2]; 10 mg single oral dose): 0
- Incidence of TEAE: Dizziness postural ([2]; 10 mg single oral dose): 0
- Incidence of TEAE: Fatigue ([2]; 10 mg single oral dose): 1
- Incidence of TEAE: Headache ([2]; 10 mg single oral dose): 1
- Incidence of TEAE: Nausea ([2]; 10 mg single oral dose): 0
- Incidence of TEAE: Oropharyngeal pain ([2]; 10 mg single oral dose): 0
- Incidence of TEAE: Presyncope ([2]; 10 mg single oral dose): 1
- Incidence of TEAE: Pruritus ([2]; 10 mg single oral dose): 0
- Incidence of TEAE: Somnolence ([2]; 10 mg single oral dose): 1
- Incidence of TEAE: Vomiting ([2]; 10 mg single oral dose): 0
- Incidence of TEAE: Dizziness ([2]; 25 mg single oral dose): 0
- Incidence of TEAE: Dizziness postural ([2]; 25 mg single oral dose): 0
- Incidence of TEAE: Fatigue ([2]; 25 mg single oral dose): 2
- Incidence of TEAE: Headache ([2]; 25 mg single oral dose): 0
- Incidence of TEAE: Nausea ([2]; 25 mg single oral dose): 0
- Incidence of TEAE: Oropharyngeal pain ([2]; 25 mg single oral dose): 0
- Incidence of TEAE: Presyncope ([2]; 25 mg single oral dose): 1
- Incidence of TEAE: Pruritus ([2]; 25 mg single oral dose): 0
- Incidence of TEAE: Somnolence ([2]; 25 mg single oral dose): 0
- Incidence of TEAE: Vomiting ([2]; 25 mg single oral dose): 0
- Incidence of TEAE: Dizziness ([2]; 50 mg single oral dose): 0
- Incidence of TEAE: Dizziness postural ([2]; 50 mg single oral dose): 0
- Incidence of TEAE: Fatigue ([2]; 50 mg single oral dose): 0
- Incidence of TEAE: Headache ([2]; 50 mg single oral dose): 2
- Incidence of TEAE: Nausea ([2]; 50 mg single oral dose): 1
- Incidence of TEAE: Oropharyngeal pain ([2]; 50 mg single oral dose): 0
- Incidence of TEAE: Presyncope ([2]; 50 mg single oral dose): 1
- Incidence of TEAE: Pruritus ([2]; 50 mg single oral dose): 0
- Incidence of TEAE: Somnolence ([2]; 50 mg single oral dose): 2
- Incidence of TEAE: Vomiting ([2]; 50 mg single oral dose): 0
- Incidence of TEAE: Dizziness ([2]; 75 mg single oral dose): 0
- Incidence of TEAE: Dizziness postural ([2]; 75 mg single oral dose): 0
- Incidence of TEAE: Fatigue ([2]; 75 mg single oral dose): 0
- Incidence of TEAE: Headache ([2]; 75 mg single oral dose): 3
- Incidence of TEAE: Nausea ([2]; 75 mg single oral dose): 3
- Incidence of TEAE: Oropharyngeal pain ([2]; 75 mg single oral dose): 0
- Incidence of TEAE: Presyncope ([2]; 75 mg single oral dose): 3
- Incidence of TEAE: Pruritus ([2]; 75 mg single oral dose): 0
- Incidence of TEAE: Somnolence ([2]; 75 mg single oral dose): 1
- Incidence of TEAE: Vomiting ([2]; 75 mg single oral dose): 2
- Incidence of TEAE: Dizziness ([2]; 100 mg single oral dose): 0
- Incidence of TEAE: Dizziness postural ([2]; 100 mg single oral dose): 2
- Incidence of TEAE: Fatigue ([2]; 100 mg single oral dose): 0
- Incidence of TEAE: Headache ([2]; 100 mg single oral dose): 3
- Incidence of TEAE: Nausea ([2]; 100 mg single oral dose): 3
- Incidence of TEAE: Oropharyngeal pain ([2]; 100 mg single oral dose): 0
- Incidence of TEAE: Presyncope ([2]; 100 mg single oral dose): 1
- Incidence of TEAE: Pruritus ([2]; 100 mg single oral dose): 0
- Incidence of TEAE: Somnolence ([2]; 100 mg single oral dose): 2
- Incidence of TEAE: Vomiting ([2]; 100 mg single oral dose): 1
- Incidence of TEAE: Dizziness ([2]; 125 mg single oral dose): 1
- Incidence of TEAE: Dizziness postural ([2]; 125 mg single oral dose): 0
- Incidence of TEAE: Fatigue ([2]; 125 mg single oral dose): 0
- Incidence of TEAE: Headache ([2]; 125 mg single oral dose): 2
- Incidence of TEAE: Nausea ([2]; 125 mg single oral dose): 2
- Incidence of TEAE: Oropharyngeal pain ([2]; 125 mg single oral dose): 0
- Incidence of TEAE: Presyncope ([2]; 125 mg single oral dose): 0
- Incidence of TEAE: Pruritus ([2]; 125 mg single oral dose): 1
- Incidence of TEAE: Somnolence ([2]; 125 mg single oral dose): 0
- Incidence of TEAE: Vomiting ([2]; 125 mg single oral dose): 0
- Incidence of TEAE: Dizziness ([2]; 150 mg single oral dose): 1
- Incidence of TEAE: Dizziness postural ([2]; 150 mg single oral dose): 0
- Incidence of TEAE: Fatigue ([2]; 150 mg single oral dose): 1
- Incidence of TEAE: Headache ([2]; 150 mg single oral dose): 2
- Incidence of TEAE: Nausea ([2]; 150 mg single oral dose): 5
- Incidence of TEAE: Oropharyngeal pain ([2]; 150 mg single oral dose): 0
- Incidence of TEAE: Presyncope ([2]; 150 mg single oral dose): 3
- Incidence of TEAE: Pruritus ([2]; 150 mg single oral dose): 0
- Incidence of TEAE: Somnolence ([2]; 150 mg single oral dose): 1
- Incidence of TEAE: Vomiting ([2]; 150 mg single oral dose): 1
- Incidence of TEAE: Dizziness ([2]; 175 mg single oral dose): 0
- Incidence of TEAE: Dizziness postural ([2]; 175 mg single oral dose): 0
- Incidence of TEAE: Fatigue ([2]; 175 mg single oral dose): 0
- Incidence of TEAE: Headache ([2]; 175 mg single oral dose): 0
- Incidence of TEAE: Nausea ([2]; 175 mg single oral dose): 5
- Incidence of TEAE: Oropharyngeal pain ([2]; 175 mg single oral dose): 0
- Incidence of TEAE: Presyncope ([2]; 175 mg single oral dose): 4
- Incidence of TEAE: Pruritus ([2]; 175 mg single oral dose): 0
- Incidence of TEAE: Somnolence ([2]; 175 mg single oral dose): 1
- Incidence of TEAE: Vomiting ([2]; 175 mg single oral dose): 0
- Incidence of TEAE: Dizziness ([2]; 200 mg single oral dose): 2
- Incidence of TEAE: Dizziness postural ([2]; 200 mg single oral dose): 0
- Incidence of TEAE: Fatigue ([2]; 200 mg single oral dose): 1
- Incidence of TEAE: Headache ([2]; 200 mg single oral dose): 3
- Incidence of TEAE: Nausea ([2]; 200 mg single oral dose): 3
- Incidence of TEAE: Oropharyngeal pain ([2]; 200 mg single oral dose): 0
- Incidence of TEAE: Presyncope ([2]; 200 mg single oral dose): 1
- Incidence of TEAE: Pruritus ([2]; 200 mg single oral dose): 2
- Incidence of TEAE: Somnolence ([2]; 200 mg single oral dose): 1
- Incidence of TEAE: Vomiting ([2]; 200 mg single oral dose): 0
- Subjects reporting TEAEs ([2]; all ALKS 7119 doses, 51 of 80 subjects (placebo 40%)): 64%
- Ki [3]: 7.44 µM
